Test results published in patent US12257334B2, “Oral care compositions” (Colgate-Palmolive Company, priority 2015, dated 2025).

Legend:
[1] = Stabilization with multi-charged species: redissolving the DV-CHX precipitate; assay type: physicochemical; conditions: with significant stirring time
Text: Stabilization with Multi-Charged Species: The addition of DV to a solution of CHX causes an immediate precipitation. However, the addition of low levels of surfactants or multi-charged compounds brings both DV and CHX back into solution. The table below lists multiple compounds that help to redissolve the DV-CHX, and what we have found as their lowest effective levels. These solutions are stable from pH 4.9-7. Addition of citric acid to lower the pH to <4.9 causes significant precipitation.

[2] = tested on: mixed species inoculum culture containing: Lactobacillus casei, Streptococcus oralis, Actinomyces viscosus, Veillonella parvula & Fusobacterium nucleatum; assay type: cell-based
Protocol: Bacterial kill: A 20-second short interval kill test (SIKT) measures the efficacy of various treatment solutions in killing oral pathogens. […] A mixed species inoculum culture containing: Lactobacillus casei, Streptococcus oralis, Actinomyces viscosus, Veillonella parvula & Fusobacterium nucleatum at an optical density of 0.5 @ 610nm is centrifuged. The supernatant is then aspirated off and the remaining pellicle re-suspended in sterile phosphate buffered saline (PBS). 100 ul of this solution is then treated with 100 ul of test sample for 30 or 60 seconds. Immediately following treatment, the exposure is neutralized by adding 1.3 ml of sterile D/E neutralizing broth. The neutralizing broth is then rinsed off by centrifugation and re-suspension in PBS. 50 ul samples are then transferred in triplicate to a 96-well microplate. The fluorescent dyes are then prepared per the manufacturer's directions and added to the samples. The fluorescence is then measured in a fluorescent plate reader. Data from this assay are presented as a percentage of bacterial remaining viable relative to a control sample treated with PBS.

[3] = aqueous solution, no net charge; cited from earlier work

In the case of `C[N+](C)(C)CC(=O)O` [Betaine], the Lowest effective level ([1]; added to solution of 0.12% CHX and 1.025 DV (w/w by actives)) is reported as 0.3% for 0.12% CHX and the Lowest effective level ([1]; added to solution of 0.2% CHX and 1.025 DV (w/w by actives)) is reported as 0.3% for 0.2% CHX.
For `CCO` [Dead, ethanol], the “% viability” value [2] was 36.3%.
For `NCCCC[C@H](N)C(=O)O` [lysine], the isoelectric point [3] is given as 9.7 pH.
